Measurements published in patent US7786141B2 (Vertex Pharmaceuticals Incorporated, priority 2004, dated 2010).

Experiments:
M1 muscarinic receptor = molecular target: T1, M1 muscarinic receptor (Homo sapiens, UniProt P11229); assay: Functional mobilization of intracellular calcium (FLIPR) in M1-CHO cells; format: cell-based; conditions: Table 4; for Emax: 100% efficacy is the maximum response obtained with the Carbachol control; for M1 Activity: modulating M1 receptor
T1 construct: expressed in transfected cells; host or cells: CHO (M1-CHO)
T1 sequence (P11229 1-460): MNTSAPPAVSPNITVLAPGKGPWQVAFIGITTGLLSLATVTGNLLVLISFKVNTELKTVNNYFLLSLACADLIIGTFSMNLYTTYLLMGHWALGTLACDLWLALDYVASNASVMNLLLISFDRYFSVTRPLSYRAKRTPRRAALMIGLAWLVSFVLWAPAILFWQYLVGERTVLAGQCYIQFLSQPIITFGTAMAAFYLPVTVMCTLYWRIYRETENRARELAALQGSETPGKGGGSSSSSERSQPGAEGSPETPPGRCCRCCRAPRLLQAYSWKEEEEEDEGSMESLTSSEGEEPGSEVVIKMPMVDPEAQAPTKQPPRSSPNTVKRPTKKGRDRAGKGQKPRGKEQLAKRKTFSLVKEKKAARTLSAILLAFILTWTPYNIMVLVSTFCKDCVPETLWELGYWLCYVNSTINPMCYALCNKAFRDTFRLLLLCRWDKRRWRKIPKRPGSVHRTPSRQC
How it was run: (§1)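 FLIPR Ca2+ read, ex 488/em 540 nm, 60 s. Recombinant CHO lines (M1 or M4), dye-loaded Fluo-3 AM 60-90 min at 37° C, probenecid 1 mM, pH 7.4. Agonist: compound alone; inhibition: 15 min compound pre-incubation, then carbachol at EC80 for that subtype.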

M4 muscarinic receptor = molecular target: T2, M4 muscarinic receptor (Homo sapiens, UniProt P08173); assay: Functional mobilization of intracellular calcium (FLIPR) in M4-CHO cells; format: cell-based; conditions: Table 4; for Emax: 100% efficacy is the maximum response obtained with the Carbachol control; for M4 Activity: modulating M4 receptor
T2 construct: expressed in transfected cells; host or cells: CHO (M4-CHO)
T2 sequence (P08173 1-479): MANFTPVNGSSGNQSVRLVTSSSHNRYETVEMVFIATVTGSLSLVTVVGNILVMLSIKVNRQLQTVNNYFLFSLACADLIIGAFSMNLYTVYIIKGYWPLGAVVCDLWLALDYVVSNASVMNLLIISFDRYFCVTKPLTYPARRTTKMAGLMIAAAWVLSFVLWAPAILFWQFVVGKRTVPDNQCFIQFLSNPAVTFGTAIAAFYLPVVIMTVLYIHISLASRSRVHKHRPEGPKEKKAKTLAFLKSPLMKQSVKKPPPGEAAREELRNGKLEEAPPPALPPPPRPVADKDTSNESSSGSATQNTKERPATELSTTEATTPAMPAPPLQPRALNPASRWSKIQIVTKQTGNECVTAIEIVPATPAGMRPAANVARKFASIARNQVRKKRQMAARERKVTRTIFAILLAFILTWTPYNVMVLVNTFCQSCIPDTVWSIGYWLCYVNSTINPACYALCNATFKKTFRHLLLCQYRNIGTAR
How it was run: as §1

Compound	Emax (M1 muscarinic receptor)	M1 Activity (M1 muscarinic receptor)	Emax (M4 muscarinic receptor)	M4 Activity (M4 muscarinic receptor)
CCOC(=O)N1CCC(N2CCC3(CC2)CN(C(C)=O)c2c(-c4ccc(C(C)=O)cc4)cccc23)CC1 [compound 491]	25 to 100%	xx (activity was measured to be between 2.0 μM and 5.0 μM)	< 25%	xx (activity was measured to be between 2.0 μM and 5.0 μM)
CN(C)C(=O)N1CC2(CCN(C3CCN(C(=O)CCC#N)CC3)CC2)c2cc(F)ccc21 [compound 492]	25 to 100%	x (activity was measured to be greater than 5.0 μM)	< 25%	x (activity was measured to be greater than 5.0 μM)
C#CCOC(=O)N1CC[C@H](CN2CCC3(CC2)CN(C(C)=O)c2ccccc23)C1 [compound 493]	> 100%	xxx (activity was measured to be less than 2.0 μM)	> 100%	xxx (activity was measured to be less than 2.0 μM)
CCOC(=O)N1CCC(N2CCC3(CC2)CN(C(=O)NC(C)C)c2ccccc23)CC1 [compound 494]	25 to 100%	xx (activity was measured to be between 2.0 μM and 5.0 μM)	25 to 100%	xxx (activity was measured to be less than 2.0 μM)
CC(=O)N1CC2(CCN(C3CCN(C(=O)OCC(C)(C)C)CC3)CC2)c2ccccc21 [compound 496]	< 25%	x (activity was measured to be greater than 5.0 μM)	< 25%	x (activity was measured to be greater than 5.0 μM)
CN(C)C(=O)N1CC2(CCN(C3CCN(c4nccnc4C#N)CC3)CC2)c2cc(F)ccc21 [compound 497]	25 to 100%	xx (activity was measured to be between 2.0 μM and 5.0 μM)	25 to 100%	xx (activity was measured to be between 2.0 μM and 5.0 μM)
Cc1ccc2c(c1)C(=O)CC21CCN(CC2C[C@H]3C=C[C@H]2C3)CC1 (stereo partly drawn) [compound 498]	25 to 100%	xxx (activity was measured to be less than 2.0 μM)	25 to 100%	xxx (activity was measured to be less than 2.0 μM)
CCOC(=O)N1CCC(N2CCC3(CC2)CN(C(C)=O)c2c(-c4cccc(F)c4)cccc23)CC1 [compound 499]	25 to 100%	x (activity was measured to be greater than 5.0 μM)	< 25%	x (activity was measured to be greater than 5.0 μM)
COc1ccc(CC(=O)N2CCC(N3CCC4(CC3)CN(C(=O)N(C)C)c3ccc(F)cc34)CC2)cc1 [compound 500]	< 25%	x (activity was measured to be greater than 5.0 μM)	< 25%	x (activity was measured to be greater than 5.0 μM)
CCOC(=O)N1CC[C@@H](CN2CCC3(CC2)CN(C(C)=O)c2cccc(C)c23)C1 [compound 502]	25 to 100%	xxx (activity was measured to be less than 2.0 μM)	25 to 100%	xx (activity was measured to be between 2.0 μM and 5.0 μM)
CCOC(=O)N1C2CCC1CC(N1CCC3(CC[C@H](NC(=O)N(C)C)c4ccccc43)CC1)C2 (stereo partly drawn) [compound 503]	25 to 100%	xxx (activity was measured to be less than 2.0 μM)	25 to 100%	xxx (activity was measured to be less than 2.0 μM)
CC(=O)N[C@H]1CCC2(CCN(C3CC(C)(C)CC(C)(C)C3)CC2)c2ccccc21 [compound 504]	< 25%	x (activity was measured to be greater than 5.0 μM)	< 25%	x (activity was measured to be greater than 5.0 μM)
CC(=O)N1CC2(CCN(C3CCN(c4cnccn4)CC3)CC2)c2ccccc21 [compound 505]	25 to 100%	xxx (activity was measured to be less than 2.0 μM)	25 to 100%	xxx (activity was measured to be less than 2.0 μM)
CC(=O)N[C@@H]1CCC2(CCN([C@@H]3C[C@H]4CC[C@@H]3C4)CC2)c2ccccc21 [compound 506]	< 25%	x (activity was measured to be greater than 5.0 μM)	25 to 100%	xx (activity was measured to be between 2.0 μM and 5.0 μM)
CCCOC(=O)N1C2CCC1CC(N1CCC3(CC1)CN(C(C)=O)c1ccccc13)C2 (stereo not drawn) [compound 507]	25 to 100%	xxx (activity was measured to be less than 2.0 μM)	25 to 100%	xxx (activity was measured to be less than 2.0 μM)
C/C=C/C(=O)N1CC2(CCN(C3CCN(C(=O)OCC)CC3)CC2)c2cc(F)ccc21 [compound 508]	25 to 100%	xxx (activity was measured to be less than 2.0 μM)	25 to 100%	xxx (activity was measured to be less than 2.0 μM)
CCOC(=O)N1CCC(N2CCC3(CC2)CN(C(C)=O)c2c(C)cccc23)CC1 [compound 509]	25 to 100%	xx (activity was measured to be between 2.0 μM and 5.0 μM)	25 to 100%	x (activity was measured to be greater than 5.0 μM)
CCCOC(=O)N1CC[C@H](CN2CCC3(CC2)CN(C(=O)N(C)C)c2ccc(F)cc23)C1 [compound 510]	25 to 100%	xxx (activity was measured to be less than 2.0 μM)	25 to 100%	xxx (activity was measured to be less than 2.0 μM)
COc1cc2c(cc1OC)C1(CCN(CC3CCCCC3)CC1)C[C@@H]2NC(C)=O [compound 511]	< 25%	x (activity was measured to be greater than 5.0 μM)	< 25%	x (activity was measured to be greater than 5.0 μM)
COC1CCCCC1N1CCC2(CC1)CN(C(C)=O)c1ccc(F)cc12 (stereo not drawn) [compound 512]	< 25%	x (activity was measured to be greater than 5.0 μM)	< 25%	x (activity was measured to be greater than 5.0 μM)
CCOC(=O)N1CCC(N2CCC3(CC2)CN(C2CCC4(CC2)OCCO4)c2ccccc23)CC1 [compound 513]	25 to 100%	xxx (activity was measured to be less than 2.0 μM)	25 to 100%	xxx (activity was measured to be less than 2.0 μM)
CC(=O)N[C@H]1CCC2(CCN(CC3CC3)CC2)c2ccccc21 [compound 514]	25 to 100%	xx (activity was measured to be between 2.0 μM and 5.0 μM)	25 to 100%	x (activity was measured to be greater than 5.0 μM)
CC#CC(C)OC(=O)N1C2CCC1CC(N1CCC3(CC1)CN(C(C)=O)c1ccccc13)C2 (stereo not drawn) [compound 515]	25 to 100%	xxx (activity was measured to be less than 2.0 μM)	25 to 100%	xxx (activity was measured to be less than 2.0 μM)
C#CCOC(=O)N1C2CCC1CC(N1CCC3(CC1)CN(C(C)=O)c1ccccc13)C2 (stereo not drawn) [compound 516]	25 to 100%	xxx (activity was measured to be less than 2.0 μM)	25 to 100%	xxx (activity was measured to be less than 2.0 μM)
CCOC(=O)N1CCC(N2CCC3(CC2)CN(c2ccncc2)c2ccc(F)cc23)CC1 [compound 517]	25 to 100%	xxx (activity was measured to be less than 2.0 μM)	25 to 100%	xxx (activity was measured to be less than 2.0 μM)
CCCOC(=O)N1CC[C@H](CN2CCC3(CC2)CN(C(C)=O)c2ccccc23)C1 [compound 518]	< 25%	x (activity was measured to be greater than 5.0 μM)	< 25%	x (activity was measured to be greater than 5.0 μM)
O=C(N[C@H]1CC2(CCN(C[C@@H]3C[C@H]4C=C[C@H]3C4)CC2)c2ccccc21)c1ccoc1 [compound 519]	25 to 100%	xxx (activity was measured to be less than 2.0 μM)	< 25%	x (activity was measured to be greater than 5.0 μM)
